Square brackets hold non-standard residues; d marks the D form. Ends that are not written are not given here. Ala(cPr) = N[C@@H](CC1CC1)C(=O)O
Assays:
[1] = tested on: CD8+ SupT1 cells; test: Screen of focused OBOC peptide library against CD8+ cells; assay type: cell-based; conditions: 10% FBS
Method: In addition to screening the focused library against recombinant human CD8 protein, the library was screened against cells. Non-specific PCCs were identified and removed by an anti-screen against CD8− Jurkat cells. The pre-cleared library entered into a screen against CD8+ SupT1 cells in 2% FBS for 1 h at 4° C. […] Non-canonical amino acids including cyclopropyl alanine, thiazolyl alanine, 4-fluorophenylalanine, and 1-methyltryptophan were identified among the hits. The consensus sequence from the hits in Table 6 is trrkr (SEQ ID NO:30).
Because of the large number of electrostatic hits in the screen with 2% FBS, additional screens were performed varying the blocking conditions to decrease the quantity of electrostatic hits. In particular, screens using 10% FBS gave no hits with any electrostatic amino acids. These conditions ultimately identified tnpks (SEQ ID NO:31) and tp(CyA)k(Fp).

[2] = tested on: CD8+ SupT1 cells; test: Flow cytometry binding to CD8+ SupT1 and CD8− Jurkat cells; assay type: cell-based; conditions: FIG. 1
From the text: FIG. 1 is a graph binding of some example peptides to CD8+ cells (SuppT1 cells) and CD8− cells (Jurkat cells).
The hits identified in the non-canonical screen were further evaluated in CD8+ SupT1 and CD8− Jurkat cells by flow cytometry.

Row | Substance | hit in CD8+ cell screen with varied blocking conditions [1] | binding to CD8 compared with parent compound tfpkk [2]
1 | tnpks: hit identified in CD8+ cell screen using 10% FBS (TNPKS; (1)..(5) D amino acids) | identified | 
2 | tp(CyA)k(FP): hit sequence following CD8+ cell screen; also identified in 10% FBS screen ([dT][dP][Ala(cPr)][dK]X; not fully specified (residue 5); printed as tp(CyA)k(FP)) | identified | improved binding to CD8 over the parent compound

— patent publication US11919972B2, “Peptide libraries with non-canonical amino acids” (REGENERON PHARMACEUTICALS, INC., priority 2018, dated 2024)
